Here are results for 33 compounds from patent publication US20250171431A1, “HETEROCYCLIC INHIBITORS OF IGF-1R FOR TREATMENT OF DISEASE” (HORIZON THERAPEUTICS IRELAND DAC, priority 2023, published 2025).

Each structure is given as a SMILES string. pIC50: −log10 of the molar value. A value given as a limit tells only on which side of the number the result lay.

Broadly, the pIC50 is the IC50 on a negative log10 scale, so that one unit is a factor of ten.

For this test, the target named is IGF-1R (Homo sapiens (Human), UniProt P08069). In words: Example B-1: IGF-1R Assay (PC3 cells, IGF1 stimulation, AlphaLISA). The test is classed as cell-based. The following applies: 200 ng/mL IGF1 stimulation, read-out: Biological Activity against IGF-1R IC50. In a few lines: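 PC3 cells were serum-starved 2 h, treated with serially diluted compounds for 2 h, then stimulated with IGF1 (200 ng/mL final) for 30 min. Lysates were read by AlphaLISA; % inhibition was calculated relative to vehicle and EC80 controls, with IC50 values binned into ranges.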
IGF-1R, sequence (P08069 31-1367): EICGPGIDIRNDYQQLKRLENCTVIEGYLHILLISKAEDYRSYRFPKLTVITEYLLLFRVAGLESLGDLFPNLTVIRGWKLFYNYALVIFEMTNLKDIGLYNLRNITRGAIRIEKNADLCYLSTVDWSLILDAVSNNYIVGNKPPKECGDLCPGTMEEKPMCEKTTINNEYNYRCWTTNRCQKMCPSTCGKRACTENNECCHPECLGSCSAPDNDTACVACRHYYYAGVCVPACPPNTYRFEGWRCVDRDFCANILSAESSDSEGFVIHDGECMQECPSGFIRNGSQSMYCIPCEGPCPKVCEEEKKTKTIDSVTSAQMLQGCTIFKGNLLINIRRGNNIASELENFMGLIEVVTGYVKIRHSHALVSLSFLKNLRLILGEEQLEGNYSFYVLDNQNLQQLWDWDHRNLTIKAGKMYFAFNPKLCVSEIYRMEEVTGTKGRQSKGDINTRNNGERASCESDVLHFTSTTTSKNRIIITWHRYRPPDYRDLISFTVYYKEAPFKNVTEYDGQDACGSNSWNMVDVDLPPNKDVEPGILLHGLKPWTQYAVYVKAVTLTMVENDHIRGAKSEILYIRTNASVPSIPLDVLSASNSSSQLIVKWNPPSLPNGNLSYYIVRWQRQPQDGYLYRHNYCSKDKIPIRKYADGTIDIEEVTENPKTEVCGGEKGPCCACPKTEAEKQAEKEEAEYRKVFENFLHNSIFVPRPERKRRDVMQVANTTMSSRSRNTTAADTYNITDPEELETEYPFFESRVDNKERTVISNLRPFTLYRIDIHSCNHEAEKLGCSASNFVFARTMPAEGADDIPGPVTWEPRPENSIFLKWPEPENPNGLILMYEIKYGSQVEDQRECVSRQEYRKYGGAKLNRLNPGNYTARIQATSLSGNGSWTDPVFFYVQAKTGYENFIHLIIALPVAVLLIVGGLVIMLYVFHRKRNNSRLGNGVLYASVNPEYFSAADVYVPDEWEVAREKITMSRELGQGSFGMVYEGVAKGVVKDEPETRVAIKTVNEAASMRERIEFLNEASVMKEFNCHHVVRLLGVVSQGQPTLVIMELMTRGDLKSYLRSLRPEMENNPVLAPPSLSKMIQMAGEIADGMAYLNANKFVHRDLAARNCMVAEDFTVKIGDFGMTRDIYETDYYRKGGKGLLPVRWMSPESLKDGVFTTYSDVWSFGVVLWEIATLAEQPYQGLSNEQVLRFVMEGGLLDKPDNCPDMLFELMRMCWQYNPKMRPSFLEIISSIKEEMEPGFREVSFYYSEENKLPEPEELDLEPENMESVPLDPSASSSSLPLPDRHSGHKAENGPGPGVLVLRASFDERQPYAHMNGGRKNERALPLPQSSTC
For orientation: In Alpha technology, singlet oxygen from a donor bead excites a nearby acceptor bead.

Regarding `CC1(C)CCc2cc(Nc3ccnc(Nc4ccc(OCCCN5CCOCC5)cc4)n3)cnc2C1` [Compound 64, 4-(7,7-dimethyl-5,6,7,8-tetrahydro-3-quinolylamino)-2-[p-(3-morpholinopropoxy)phenylamino] pyrimidine], the pIC50 was not below 6.30.

On to `CC1(C)COc2cc(Nc3ccnc(Nc4ccc(OCCCN5CCOCC5)cc4)n3)cnc2O1` [Compound 65, 4-(3,3-dimethyl-2,3-dihydro-1,4-dioxa-5-aza-7-naphthylamino)-2-[p-(3-morpholinopropoxy)phenylamino]pyrimidine], for which the pIC50 was not below 6.30. As for `COc1cc(Nc2nccc(Nc3cnc4c(c3)C(C)(C)OC(C)(C)C4)n2)ccc1OCCCN1CCCCC1` [Compound 386, 2-[3-methoxy-4-(3-piperidinopropoxy)phenylamino]-4-(5,5,7,7-tetramethyl-7,8-dihydro-5H-6-oxa-1-azanaphth-3-ylamino)pyrimidine], the pIC50 is 5.70 to 6.30. Consider `COc1cc(Nc2nccc(Nc3ccc4cccnc4c3)n2)ccc1OCCCN1CCCCC1` [Compound 433, 2-[3-methoxy-4-(3-piperidinopropoxy)phenylamino]-4-(7-quinolylamino) pyrimidine], for which the pIC50 was 5.70 to 6.30. Take `O=S1(=O)CCN([C@H]2C[C@H](Oc3ccc(Nc4nccc(Nc5cnc6c(Cl)cccc6c5)n4)cc3)C2)CC1` [Compound 349]: the negative-log IC50 (pIC50) was 5.70 to 6.30.

With `Fc1ccc2cc(Nc3ccnc(Nc4ccc(OCCCN5CCOCC5)cc4)n3)cnc2c1F` [Compound 403, 4-(7,8-difluoro-3-quinolylamino)-2-[p-(3-morpholinopropoxy)phenylamino]pyrimidine], the negative-log IC50 (pIC50) is 5.00 to 5.70. With `COc1cc(Nc2nccc(Nc3cc4cccc(F)c4[nH]c3=O)n2)cnc1N1CCNCC1` [Compound 235, 8-fluoro-3-{2-[5-methoxy-6-(1-piperazinyl)-3-pyridylamino]-4-pyrimidinylamino}-1,2-dihydro-2-quinolinone] the figure was not below 6.30; with `COc1cc(Nc2ncc(F)c(Nc3cc4ccccc4nc3C(N)=O)n2)ccc1O[C@H]1C[C@@H](N(C)C)C1` [Compound 193, 3-(5-fluoro-2-{3-methoxy-4-[(1s,3s)-3-(dimethylamino)cyclobutoxy]phenylamino}-4-pyrimidinylamino)-2-quinolinecarboxamide], not below 6.30; with `COc1cc(O[C@H]2C[C@@H](N(C)C)C2)ccc1Nc1nccc(Nc2cnc3ccccc3c2)n1` [Compound 19, 2-{2-methoxy-4-[(1s,3s)-3-(dimethylamino)cyclobutoxy]phenylamino}-4-(3-quinolylamino)pyrimidine], not below 6.30. With `COc1cc(Nc2nccc(Nc3cnc4cc(F)c(F)cc4c3)n2)cnc1N1CCN(C)CC1` [Compound 468, 4-(6,7-difluoro-3-quinolylamino)-2-[5-methoxy-6-(4-methyl-1-piperazinyl)-3-pyridylamino]pyrimidine], the negative-log IC50 (pIC50) was not below 6.30.

On to `CCc1ccc2cc(Nc3ccnc(Nc4ccc(OCCCN5CCOCC5)cc4)n3)cnc2c1` [Compound 397, 4-(7-ethyl-3-quinolylamino)-2-[p-(3-morpholinopropoxy)phenylamino]pyrimidine], for which the pIC50 is 5.00 to 5.70. As for `COc1cc(Nc2nccc(Nc3cc4cccc(F)c4[nH]c3=O)n2)cnc1N1CCN(C2COC2)CC1` [Compound 237, 8-fluoro-3-(2-{5-methoxy-6-[4-(3-oxetanyl)-1-piperazinyl]-3-pyridylamino}-4-pyrimidinylamino)-1,2-dihydro-2-quinolinone], the pIC50 is not below 6.30. Regarding `COc1cc(Nc2nccc(Nc3cnc4cc(F)cnc4c3)n2)ccc1O[C@H]1C[C@@H](N(C)C)C1` [Compound 272, 4-(7-fluoro-1,5-diaza-3-naphthylamino)-2-{3-methoxy-4-[(1s,3s)-3-(dimethylamino)cyclobutoxy]phenylamino}pyrimidine], the pIC50 was not below 6.30. Take `COc1cc(Nc2nccc(Nc3cnc4ccccc4c3)n2)cc(C#N)c1O[C@H]1C[C@H](N(C)C)C1` [Compound 267, 3-methoxy-5-[4-(3-quinolylamino)-2-pyrimidinylamino]-2-[(1r,3r)-3-(dimethylamino)cyclobutoxy] benzonitrile]: the negative-log IC50 (pIC50) was not below 6.30. Consider `COc1cc(Nc2nccc(Nc3cnc4c(c3)OCC(C)O4)n2)ccc1OCCCN1CCCCC1` (stereo not drawn) [Compound 101, 2-[3-methoxy-4-(3-piperidinopropoxy)phenylamino]-4-(3-methyl-2,3-dihydro-1,4-dioxa-5-aza-7-naphthylamino)pyrimidine], for which the pIC50 is not below 6.30. With `O=S1(=O)CCN([C@H]2C[C@H](Oc3ccc(Nc4nccc(Nc5cnc6ccc(Br)cc6c5)n4)cc3)C2)CC1` [Compound 347], the pIC50 was not below 6.30. Turning to `CN(C)[C@H]1CC[C@@H](Oc2ccc(Nc3nccc(Nc4cnc5ccccc5c4)n3)cc2)CC1` [Compound 40, 4-(3-quinolylamino)-2-{p-[(1s,4s)-4-(dimethylamino)cyclohexyloxy]phenylamino}pyrimidine], the negative logarithm of the IC50 (pIC50) is not below 6.30.

Turning to `CN(C)[C@H]1C[C@@H](Oc2ncc(Nc3nccc(Nc4cnc5c(c4)OCCO5)n3)cc2C#N)C1` [Compound 46, 5-[4-(2,3-dihydro-1,4-dioxa-5-aza-7-naphthylamino)-2-pyrimidinylamino]-2-[(1s,3s)-3-(dimethylamino)cyclobutoxy] nicotinonitrile], the negative logarithm of the IC50 (pIC50) was not below 6.30. For `COc1cc(Nc2nccc(Nc3cnc4c(C(F)(F)F)cccc4c3)n2)ccc1OCCCN1CCCCC1` [Compound 5, 2-[3-methoxy-4-(3-piperidinopropoxy)phenylamino]-4-[8-(trifluoromethyl)-3-quinolylamino]pyrimidine], the pIC50 is not below 6.30.

Regarding `COc1cc(Nc2nccc(Nc3ccc4ncc(Br)cc4n3)n2)ccc1O[C@H]1C[C@@H](N(C)C)C1` [Compound 314, 4-(7-bromo-1,5-diaza-2-naphthylamino)-2-{3-methoxy-4-[(1s,3s)-3-(dimethylamino)cyclobutoxy]phenylamino}pyrimidine], the negative logarithm of the IC50 (pIC50) is less than 5.00.

In the case of `COc1ccc2cc(Nc3ccnc(Nc4ccc(O[C@H]5C[C@H](N6CCS(=O)(=O)CC6)C5)cc4)n3)cnc2c1` [Compound 353], the pIC50 is 5.00 to 5.70. Turning to `COc1cc(Nc2nccc(Nc3cc(Cl)cnc3C(N)=O)n2)ccc1O[C@H]1C[C@@H](N(C)C)C1` [Compound 198, 5-chloro-3-(2-{3-methoxy-4-[(1s,3s)-3-(dimethylamino)cyclobutoxy]phenylamino}-4-pyrimidinylamino)-2-pyridinecarboxamide], the negative-log IC50 (pIC50) is not below 6.30. With `COc1cc(Nc2nccc(Nc3cnc4ccc(C5CC5)cc4c3)n2)ccc1OCCCN1CCCCC1` [Compound 102, 4-(6-cyclopropyl-3-quinolylamino)-2-[3-methoxy-4-(3-piperidinopropoxy)phenylamino]pyrimidine] the figure was not below 6.30; with `COc1cc(Nc2nccc(Nc3cnc4c(c3)OCCO4)n2)ccc1OCCCN1CCOCC1` [Compound 389, 4-(2,3-dihydro-1,4-dioxa-5-aza-7-naphthylamino)-2-[3-methoxy-4-(3-morpholinopropoxy)phenylamino]pyrimidine], not below 6.30. Regarding `COc1cc(N2CCN(C)CC2)ncc1Nc1nccc(Nc2cnc3cc(F)c(F)cc3c2)n1` [Compound 473, 4-(6,7-difluoro-3-quinolylamino)-2-[4-methoxy-6-(4-methy1-1-piperazinyl)-3-pyridylamino]pyrimidine], the negative-log IC50 (pIC50) was not below 6.30. On to `CN(C)[C@H]1C[C@H](Oc2ccc(Nc3nccc(Nc4cnc5c(c4)SCCC5)n3)cc2)C1` [Compound 318, 4-(3,4-dihydro-2H-1-thia-5-azanaphth-7-ylamino)-2-{p-[(1r,3r)-3-(dimethylamino)cyclobutoxy]phenylamino}pyrimidine], for which the pIC50 is not below 6.30.

On to `COc1cc(Nc2nccc(Nc3cc4cc(F)ccc4[nH]c3=O)n2)ccc1O[C@H]1C[C@@H](N(C)C)C1` [Compound 121, 6-fluoro-3-(2-{3-methoxy-4-[(1s,3s)-3-(dimethylamino)cyclobutoxy]phenyl-amino}-4-pyrimidinylamino)-1,2-dihydro-2-quinolinone], for which the pIC50 was not below 6.30.

In the case of `COc1cc(Nc2nccc(Nc3cc4cccc(F)c4[nH]c3=O)n2)cnc1N1CCN(C)C(C(F)(F)F)C1` (stereo not drawn) [Compound 174, 8-fluoro-3-((2-((5-methoxy-6-(4-methyl-3-(trifluoromethyl)piperazin-1-yl)pyridin-3-yl)amino)pyrimidin-4-yl)amino)quinolin-2(1H)-one], the pIC50 was 5.70 to 6.30.

Turning to `COc1cc(Nc2nccc(Nc3cnc4c(c3)CC(F)(F)CC4)n2)ccc1O[C@H]1C[C@H](N(C)C)C1` [Compound 81, 4-(6,6-difluoro-5,6,7,8-tetrahydro-3-quinolylamino)-2-{3-methoxy-4-[(1r,3r)-3-(dimethylamino)cyclobutoxy]phenylamino}pyrimidine], the pIC50 was not below 6.30. With `COc1cc(Nc2nccc(Nc3cnc4ncc(Cl)cc4c3)n2)ccc1O[C@H]1C[C@@H](N(C)C)C1` [Compound 83, 4-(6-chloro-1,8-diaza-3-naphthylamino)-2-{3-methoxy-4-[(1s,3s)-3-(dimethylamino)cyclobutoxy]phenylamino}pyrimidine] the figure was not below 6.30; with `COc1cc(Nc2nccc(Nc3cnc4cc(F)cc(F)c4c3)n2)ccc1O[C@H]1C[C@@H](N(C)C)C1` [Compound 118, 4-(5,7-difluoro-3-quinolylamino)-2-{3-methoxy-4-[(1s,3s)-3-(dimethylamino)cyclobutoxy]phenylamino}pyrimidine], not below 6.30. Consider `COc1cc(Nc2nccc(Nc3cc4cccc(F)c4[nH]c3=O)n2)cnc1N1CCNC(C(C)(C)O)C1` (stereo not drawn) [Compound 238, 8-fluoro-3-(2-{6-[3-(1-hydroxy-1-methylethyl)-1-piperazinyl]-5-methoxy-3-pyridylamino}-4-pyrimidinylamino)-1,2-dihydro-2-quinolinone], for which the negative logarithm of the IC50 (pIC50) is not below 6.30. Consider `COc1cc(Nc2nccc(Nc3cnc4ccc(Br)cc4c3)n2)ccc1O[C@H]1C[C@H](N(C)C)C1` [Compound 199, 4-(6-bromo-3-quinolylamino)-2-{3-methoxy-4-[(1r,3r)-3-(dimethylamino)cyclobutoxy]phenylamino}pyrimidine], for which the negative-log IC50 (pIC50) is not below 6.30.
